Source: publication PMC6499206, “Quantification of Volatile Metabolites Derived From Garlic (Allium sativum) in Human Urine” (Frontiers in Nutrition, 2019)

Assay: Quantification of garlic-derived metabolites in human urine after ingestion of 3 g raw garlic (SIDA, SAFE, HRGC-MS / HRGC-GC-MS)
Format: in vivo
Set-up: metabolite in urine related to creatinine: unit not given here
Conditions: for metabolite concentration in urine / metabolite concentration in urine, creatinine-normalized / highest detected concentration of the sample series: 3 g raw garlic; for highest detected concentration of the sample series: same bulb
Procedure, shortened: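 Quantification used stable isotope dilution (²H3-AMS, -AMSO, -AMSO2 standards), SAFE distillation at 50°C of DCM-treated urine, and GC-MS on a DB-FFAP column, with creatinine from the Jaffé reaction at 492 nm. Urine came from 18 volunteers avoiding sulfur-rich foods, sampled before and up to 24 h after eating 3 g raw garlic.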

With `C=CC[S+](C)[O-]` (stereo not shown) [AMSO, allyl methyl sulfoxide] the “metabolite concentration in urine” value (U VII, 1 h post (1.08 h)) was 239.4 µg/kg, the “metabolite concentration in urine, creatinine-normalized” value (U VII, 1 h post (1.08 h)) was 148.3 µg/mmol creatinine and the “metabolite concentration in urine” value (U VII, 2 h post (2.00 h)) was 158.6 µg/kg. For the same compound, the “metabolite concentration in urine, creatinine-normalized” value (U VII, 2 h post (2.00 h)) was 162.5 µg/mmol creatinine, the “metabolite concentration in urine” value (U VII, 4 h post (4.00 h)) was 145.1 µg/kg and the “metabolite concentration in urine, creatinine-normalized” value (U VII, 4 h post (4.00 h)) was 90.0 µg/mmol creatinine. For the same compound, the “metabolite concentration in urine” value (U VII, 6 h post (6.00 h)) was 123.7 µg/kg, the “metabolite concentration in urine, creatinine-normalized” value (U VII, 6 h post (6.00 h)) was 40.0 µg/mmol creatinine and the “metabolite concentration in urine” value (U VII, 8 h post (8.00 h)) was 58.6 µg/kg. The “metabolite concentration in urine, creatinine-normalized” value (U VII, 8 h post (8.00 h)) was 30.1 µg/mmol creatinine, the “metabolite concentration in urine” value (U VII, 24 h post (24.00 h)) was 5.9 µg/kg and the “metabolite concentration in urine, creatinine-normalized” value (U VII, 24 h post (24.00 h)) was 1.6 µg/mmol creatinine. The “metabolite concentration in urine” value (U VII, pre (-0.25 h)) was 3.4 µg/kg, the “metabolite concentration in urine, creatinine-normalized” value (U VII, pre (-0.25 h)) was 1.0 µg/mmol creatinine and the “metabolite concentration in urine” value (U VIII, 0.5 h post (0.52 h)) was 184.6 µg/kg. For the same compound, the “metabolite concentration in urine, creatinine-normalized” value (U VIII, 0.5 h post (0.52 h)) was 234.8 µg/mmol creatinine, the “metabolite concentration in urine” value (U VIII, 1 h post (1.08 h)) was 423.9 µg/kg and the “metabolite concentration in urine, creatinine-normalized” value (U VIII, 1 h post (1.08 h)) was 255.5 µg/mmol creatinine. For the same compound, the “metabolite concentration in urine” value (U VIII, 2 h post (2.08 h)) was 293.8 µg/kg, the “metabolite concentration in urine, creatinine-normalized” value (U VIII, 2 h post (2.08 h)) was 277.9 µg/mmol creatinine and the “metabolite concentration in urine” value (U VIII, 4 h post (4.07 h)) was 239.2 µg/kg. For the same compound, the “metabolite concentration in urine, creatinine-normalized” value (U VIII, 4 h post (4.07 h)) was 113.3 µg/mmol creatinine, the “metabolite concentration in urine” value (U VIII, 6 h post (6.08 h)) was 197.8 µg/kg and the “metabolite concentration in urine, creatinine-normalized” value (U VIII, 6 h post (6.08 h)) was 52.6 µg/mmol creatinine. The “metabolite concentration in urine” value (U VIII, 8 h post (7.90 h)) was 109.7 µg/kg, the “metabolite concentration in urine, creatinine-normalized” value (U VIII, 8 h post (7.90 h)) was 40.0 µg/mmol creatinine and the “metabolite concentration in urine” value (U VIII, 24 h post (23.83 h)) was 26.2 µg/kg. For the same compound, the “metabolite concentration in urine, creatinine-normalized” value (U VIII, 24 h post (23.83 h)) was 9.9 µg/mmol creatinine, the “metabolite concentration in urine” value (U VIII, pre (-0.33 h)) was 61.4 µg/kg and the “metabolite concentration in urine, creatinine-normalized” value (U VIII, pre (-0.33 h)) was 13.8 µg/mmol creatinine. For the same compound, the “metabolite concentration in urine” value (U X, 0.5 h post (0.53 h)) was 73.7 µg/kg, the “metabolite concentration in urine, creatinine-normalized” value (U X, 0.5 h post (0.53 h)) was 38.2 µg/mmol creatinine and the “metabolite concentration in urine” value (U X, 1 h post (1.03 h)) was 77.0 µg/kg. For the same compound, the “metabolite concentration in urine, creatinine-normalized” value (U X, 1 h post (1.03 h)) was 97.5 µg/mmol creatinine, the “metabolite concentration in urine” value (U X, 2 h post (2.03 h)) was 68.8 µg/kg and the “metabolite concentration in urine, creatinine-normalized” value (U X, 2 h post (2.03 h)) was 102.4 µg/mmol creatinine. The “metabolite concentration in urine” value (U X, 4 h post (3.85 h)) was 68.2 µg/kg, the “metabolite concentration in urine, creatinine-normalized” value (U X, 4 h post (3.85 h)) was 51.9 µg/mmol creatinine and the “metabolite concentration in urine” value (U X, 6 h post (5.80 h)) was 68.6 µg/kg. The “metabolite concentration in urine, creatinine-normalized” value (U X, 6 h post (5.80 h)) was 29.1 µg/mmol creatinine, the “metabolite concentration in urine” value (U X, 8 h post (7.75 h)) was 37.9 µg/kg and the “metabolite concentration in urine, creatinine-normalized” value (U X, 8 h post (7.75 h)) was 16.3 µg/mmol creatinine. For the same compound, the “metabolite concentration in urine” value (U X, 24 h post (23.97 h)) was 23.9 µg/kg, the “metabolite concentration in urine, creatinine-normalized” value (U X, 24 h post (23.97 h)) was 2.2 µg/mmol creatinine and the “metabolite concentration in urine” value (U X, pre (-0.07 h)) was “< LOD^2”. The “metabolite concentration in urine, creatinine-normalized” value (U X, pre (-0.07 h)) was “< LOD^2”, the “metabolite concentration in urine” value (U XI, 0.5 h post (0.50 h)) was 64.0 µg/kg and the “metabolite concentration in urine, creatinine-normalized” value (U XI, 0.5 h post (0.50 h)) was 77.5 µg/mmol creatinine. The “metabolite concentration in urine” value (U XI, 1 h post (1.02 h)) was 106.2 µg/kg, the “metabolite concentration in urine, creatinine-normalized” value (U XI, 1 h post (1.02 h)) was 133.3 µg/mmol creatinine and the “metabolite concentration in urine” value (U XI, 2 h post (2.00 h)) was 102.2 µg/kg. For the same compound, the “metabolite concentration in urine, creatinine-normalized” value (U XI, 2 h post (2.00 h)) was 133.3 µg/mmol creatinine, the “metabolite concentration in urine” value (U XI, pre (-0.08 h)) was 3.8 µg/kg and the “metabolite concentration in urine, creatinine-normalized” value (U XI, pre (-0.08 h)) was 1.1 µg/mmol creatinine. The “metabolite concentration in urine” value (U XII, 0.5 h post (0.48 h)) was 83.8 µg/kg, the “metabolite concentration in urine, creatinine-normalized” value (U XII, 0.5 h post (0.48 h)) was 11.2 µg/mmol creatinine and the “metabolite concentration in urine” value (U XII, 1 h post (1.03 h)) was 82.1 µg/kg. The “metabolite concentration in urine, creatinine-normalized” value (U XII, 1 h post (1.03 h)) was 83.2 µg/mmol creatinine, the “metabolite concentration in urine” value (U XII, 2 h post (1.85 h)) was 72.2 µg/kg and the “metabolite concentration in urine, creatinine-normalized” value (U XII, 2 h post (1.85 h)) was 108.2 µg/mmol creatinine. For the same compound, the “metabolite concentration in urine” value (U XII, 4 h post (3.80 h)) was 84.6 µg/kg, the “metabolite concentration in urine, creatinine-normalized” value (U XII, 4 h post (3.80 h)) was 31.9 µg/mmol creatinine and the “metabolite concentration in urine” value (U XII, 6 h post (5.82 h)) was 61.6 µg/kg. For the same compound, the “metabolite concentration in urine, creatinine-normalized” value (U XII, 6 h post (5.82 h)) was 10.8 µg/mmol creatinine, the “metabolite concentration in urine” value (U XII, 8 h post (7.82 h)) was 28.7 µg/kg and the “metabolite concentration in urine, creatinine-normalized” value (U XII, 8 h post (7.82 h)) was 10.1 µg/mmol creatinine. The “metabolite concentration in urine” value (U XII, 24 h post (23.92 h)) was 11.3 µg/kg, the “metabolite concentration in urine, creatinine-normalized” value (U XII, 24 h post (23.92 h)) was 0.8 µg/mmol creatinine and the “metabolite concentration in urine” value (U XII, pre (-0.08 h)) was 3.9 µg/kg. The “metabolite concentration in urine, creatinine-normalized” value (U XII, pre (-0.08 h)) was 0.2 µg/mmol creatinine, the “metabolite concentration in urine” value (U XIII, 0.5 h post (0.42 h)) was 38.0 µg/kg and the “metabolite concentration in urine, creatinine-normalized” value (U XIII, 0.5 h post (0.42 h)) was 23.8 µg/mmol creatinine. For the same compound, the “metabolite concentration in urine” value (U XIII, 1 h post (0.92 h)) was 216.6 µg/kg, the “metabolite concentration in urine, creatinine-normalized” value (U XIII, 1 h post (0.92 h)) was 87.7 µg/mmol creatinine and the “metabolite concentration in urine” value (U XIII, 2 h post (1.92 h)) was 197.5 µg/kg. For the same compound, the “metabolite concentration in urine, creatinine-normalized” value (U XIII, 2 h post (1.92 h)) was 57.1 µg/mmol creatinine, the “metabolite concentration in urine” value (U XIII, 4 h post (3.92 h)) was 105.6 µg/kg and the “metabolite concentration in urine, creatinine-normalized” value (U XIII, 4 h post (3.92 h)) was 22.5 µg/mmol creatinine. The “metabolite concentration in urine” value (U XIII, 6 h post (5.92 h)) was 42.9 µg/kg, the “metabolite concentration in urine, creatinine-normalized” value (U XIII, 6 h post (5.92 h)) was 3.7 µg/mmol creatinine and the “metabolite concentration in urine” value (U XIII, 8 h post (7.92 h)) was 2.6 µg/kg. For the same compound, the “metabolite concentration in urine, creatinine-normalized” value (U XIII, 8 h post (7.92 h)) was 0.3 µg/mmol creatinine, the “metabolite concentration in urine” value (U XIII, 24 h post (23.92 h)) was 2.6 µg/kg and the “metabolite concentration in urine, creatinine-normalized” value (U XIII, 24 h post (23.92 h)) was 0.3 µg/mmol creatinine. The “metabolite concentration in urine” value (U XIII, pre (-0.08 h)) was “< LOD^2”, the “metabolite concentration in urine, creatinine-normalized” value (U XIII, pre (-0.08 h)) was “< LOD^2” and the “variation factor of the concentration maxima between test persons” value (Urine XIII-XVI, highest vs lowest maximum) was “up to 3.0”. The “highest detected concentration of the sample series” value (from here on “highest detected concentration”) (Urine XIII) was 87.7 μg/mmol creatinine, the “highest detected concentration” value (Urine XIV (AMS: printed Urine UIV)) was 84.7 μg/mmol creatinine and the “highest detected concentration” value (Urine XV) was 150.4 μg/mmol creatinine. The “highest detected concentration” value (Urine XVI) was 50.1 μg/mmol creatinine, the “metabolite in urine related to creatinine” value (shortened to “metabolite in urine related”) (urine set U XIX, 0.5 h post (0.50 h), garlic 3.1133 g) was 15.1 and the “metabolite in urine related” value (urine set U XIX, 1 h post (1.00 h), garlic 3.1133 g) was 68.8. The “metabolite in urine related” value (urine set U XIX, 2 h post (2.00 h), garlic 3.1133 g) was 70.6, the “metabolite in urine related” value (urine set U XIX, 4 h post (4.00 h), garlic 3.1133 g) was 27.0 and the “metabolite in urine related” value (urine set U XIX, 6 h post (6.20 h), garlic 3.1133 g) was 9.8. The “metabolite in urine related” value (urine set U XIX, 8 h post (7.93 h), garlic 3.1133 g) was 5.9, the “metabolite in urine related” value (urine set U XIX, 24 h post (23.98 h), garlic 3.1133 g) was 0.2 and the “metabolite in urine related” value (urine set U XIX, pre (-0.07 h), garlic 3.1133 g) was “< LOD^2”. The “metabolite in urine related” value (urine set U XVII, 0.5 h post (0.58 h), garlic 3.1559 g) was 0.8, the “metabolite in urine related” value (urine set U XVII, 1 h post (1.00 h), garlic 3.1559 g) was 10.7 and the “metabolite in urine related” value (urine set U XVII, 2 h post (2.17 h), garlic 3.1559 g) was 27.6. For the same compound, the “metabolite in urine related” value (urine set U XVII, 4 h post (4.00 h), garlic 3.1559 g) was 15.5, the “metabolite in urine related” value (urine set U XVII, 6 h post (6.08 h), garlic 3.1559 g) was 1.2 and the “metabolite in urine related” value (urine set U XVII, 8 h post (8.00 h), garlic 3.1559 g) was 1.8. The “metabolite in urine related” value (urine set U XVII, 24 h post (23.92 h), garlic 3.1559 g) was 0.2, the “metabolite in urine related” value (urine set U XVII, pre (-0.08 h), garlic 3.1559 g) was 0.3 and the “metabolite in urine related” value (urine set U XVIII, 0.5 h post (0.63 h), garlic 3.1981 g) was 44.1. For the same compound, the “metabolite in urine related” value (urine set U XVIII, 1 h post (1.05 h), garlic 3.1981 g) was 84.8, the “metabolite in urine related” value (urine set U XVIII, 2 h post (2.00 h), garlic 3.1981 g) was 94.9 and the “metabolite in urine related” value (urine set U XVIII, 4 h post (3.97 h), garlic 3.1981 g) was 50.9. For the same compound, the “metabolite in urine related” value (urine set U XVIII, 6 h post (5.97 h), garlic 3.1981 g) was 16.6, the “metabolite in urine related” value (urine set U XVIII, 8 h post (8.30 h), garlic 3.1981 g) was 17.1 and the “metabolite in urine related” value (urine set U XVIII, 24 h post (24.13 h), garlic 3.1981 g) was 0.5. The “metabolite in urine related” value (urine set U XVIII, pre (-0.08 h), garlic 3.1981 g) was “< LOD^2”.
